# Where two headings read alike, the source gives them in different places.
# What was measured:
# HepG2 cell xenografts = assay: Human hepatocellular carcinoma xenograft model; format: in vivo, C.B-17 SCID mice; details: 0.3 mg/kg doxorubicin, 10 mg/kg 5-fluorouracil, i.p. once a day for 21 days
# Experimental: Animals were housed in cages with free access to food and water. All animals were kept under a 12:12 h light-dark cycle (lights on at 6:00 a.m.). The local Animal Ethics Committee approved the experimental protocol (number 06/2015).
# HepG2 cells (1 × 10^7 cells per 500 µL) were implanted subcutaneously into the left front armpit of the mice. […] The treatments were initiated one day after the tumor cell injection. The animals were treated intraperitoneally (200 µL per animal) once daily for 21 consecutive days. On the 22nd day, the animals were anesthetized, and peripheral blood samples were collected from the brachial artery. Animals were euthanized by anesthetic overdose, and tumors were excised and weighed.
# SCC-25 = format: cell-based, human; details: for IC50: SCC-25 (human oral squamous cell carcinoma), 72 h
# ACP-03 = format: cell-based, human; details: for IC50: ACP-03 (human gastric adenocarcinoma), 72 h
# calf thymus DNA = assay: DNA intercalation assay (ethidium bromide displacement); format: binding; details: 20 μM, cell-free, 15 min
# Experimental: DNA intercalation was assessed by examining the ability of the complex to displace ethidium bromide from ctDNA (Sigma-Aldrich)[36]. […] After a 15 min of incubation at room temperature, fluorescence was measured using the excitation and emission wavelengths of 320 nm and 600 nm, respectively, using the Spectramax Microplate Reader (Molecular Devices).
# BAD KO SV40 MEF = format: cell-based, mouse; details: 72 h
# PBMC = format: cell-based; details: PBMC (human peripheral blood mononuclear cells, non-cancer), 72 h
# K-562 = format: cell-based, human; details: for IC50: K-562 (human chronic myelogenous leukemia), 72 h
# ACP-02 = format: cell-based, human; details: for IC50: ACP-02 (human gastric adenocarcinoma), 72 h
# SCC-15 = format: cell-based, human; details: for IC50: SCC-15 (human oral squamous cell carcinoma), 72 h
# caspase-3 = assay: Caspase-3 colorimetric activation assay; format: cell-based, human; details: HepG2, 48 h
# Experimental: (§1) A caspase-3 colorimetric assay kit (Sigma-Aldrich), caspase-8 colorimetric assay kit (BioVision Inc.; Milpitas, CA, USA) and caspase-9 colorimetric assay kit (Invitrogen; Frederick, MD, USA) were used to investigate the activation of caspase-3, -8 and -9 in RCX-treated HepG2, respectively. […] Briefly, cells were lysed by incubation with cell lysis buffer on ice for 10 min and then centrifuged. Enzyme reactions were carried out in a 96-well flat-bottom microplate. To each reaction mixture, 5 μL of cell lysate was added. Absorbance at 405 nm was measured using the SpectraMax 190 Microplate Reader (Molecular Devices). The results are expressed as the specific activity (IU/mg protein) of each caspase.
# HepG2 cells [1] = assay: DNA synthesis quantification (methyl-[3H]-thymidine incorporation); format: cell-based, human
# Experimental: Cellular DNA synthesis was quantified by the incorporation of methyl-[^3H]-thymidine. Methyl-[^3H]-thymidine is a radiolabeled DNA precursor that is incorporated into newly synthesized DNA. Briefly, the complex was added along with 1 µCi of methyl-[^3H]-thymidine (PerkinElmer; Shelton, CT, USA) and incubated for 3 h. After this incubation period, cultures were harvested using a cell harvester (Brandel, Inc., Gaithersburg, MD, USA), and the amount of incorporated^3H-thymidine was determined using a liquid scintillation cocktail Hidex Maxilight (PerkinElmer Life Sciences; Groningen, GE, Netherlands) and a plate CHAMELEON V multilabel Counter (Mustionkatu 2, Turku, Finland). Mitoxantrone (Sigma-Aldrich) was used as the positive control.
# caspase-8 = assay: Caspase-8 colorimetric activation assay; format: cell-based, human; details: HepG2, 48 h
# Experimental: as §1
# HepG2 cells [2] = assay: Mitochondrial transmembrane potential (rhodamine 123); format: cell-based, human; details: HepG2, 24 h
# Experimental: Mitochondrial transmembrane potential was determined by the retention of the rhodamine 123 dye[38]. Cells were incubated with rhodamine 123 (5 μg/mL, Sigma-Aldrich Co.) at 37 °C for 15 min in the dark and washed with saline.
# p38 MAPK (pT180/pY182) = assay: Phosflow analysis; format: cell-based, human; details: HepG2, 12 µM RCX, 15 min, 30 min, 24 h
# Experimental: (§2) Phosphorylated ERK 1/2, JNK/SAPK and p38 MAPK were analyzed by flow cytometry. In brief, cells were collected and resuspended in 0.5–1 mL of 4% formaldehyde and fixed for 10 min at 37 °C. Then, the tubes were chilled on ice for 1 min. The cells were permeabilized by slowly adding ice-cold 100% methanol to prechilled cells while gently vortexing to a final concentration of 90% methanol and were incubated for 30 min on ice. After washing with incubation buffer (0.5% bovine serum albumin in PBS), PE mouse anti-ERK1/2 (pT202/pY204), PE mouse anti-JNK/SAPK (pT183/pY185), PE mouse anti-p38 MAPK (pT180/pY182) or PE mouse IgG1, κ isotype control antibodies, all from BD Biosciences, were added and incubated for 1 h at room temperature.
# JNK/SAPK (pT183/pY185) = assay: Phosflow analysis; format: cell-based, human; details: HepG2, 12 µM RCX, 15 min, 30 min, 24 h
# Experimental: as §2
# ERK1/2 (pT202/pY204) = assay: Phosflow analysis; format: cell-based, human; details: HepG2, 12 µM RCX, 15 min, 30 min, 24 h
# Experimental: as §2
# HepG2 cells [3] = assay: Intracellular reactive oxygen species levels (DCF-DA); format: cell-based, human; details: HepG2, 1 or 3 h
# Experimental: The production levels of ROS were measured according to a previously described method[39] using DCF-DA (Sigma-Aldrich). […] Then, the cells were collected, washed with saline and resuspended in FACS tubes with saline containing 5 μM DCF-DA for 30 min. […] A protection assay using the antioxidant NAC (Sigma-Aldrich) was also performed. […] The cells were then trypsinized, and the TBE assay was performed.
# HepG2 cells [4] = assay: Annexin V/PI staining assay (flow cytometry); details: HepG2, 12 and 24 µM, 12-72 h
# Experimental: For apoptosis detection, we used the FITC Annexin V Apoptosis Detection Kit I (BD Biosciences), and the analysis was performed according to the manufacturer’s instructions. Briefly, cells were washed twice with saline and then resuspended in 100 μL of binding buffer with 5 μL of PI and 5 μL of FITC Annexin V. The cells were gently mixed by vortexing and incubated for 15 min at room temperature in the dark. Afterwards, 400 μL of binding buffer was added to each tube, and the cell fluorescence was determined by flow cytometry, as described above. The percent of viable, early apoptotic, late apoptotic and necrotic cells were determined. […] The cells were then trypsinized, and the FITC Annexin V Apoptosis Detection assay was conducted as described above.
# caspase-9 = assay: Caspase-9 colorimetric activation assay; format: cell-based, human; details: HepG2, 48 h
# Experimental: as §1
compound,measurement,setting,value
"COc1cccc2c1C(=O)c1c(O)c3c(c(O)c1C2=O)C[C@@](O)(C(=O)CO)C[C@@H]3O[C@H]1C[C@H](N)[C@H](O)[C@H](C)O1 [DOX, doxorubicin]",reduction of tumor weight,HepG2 cell xenografts,27.2%
same,selectivity index (SI),SCC-25; IC50 HaCAT / IC50 SCC-25,0.1
same,selectivity index (SI),SCC-25; IC50 MRC5 / IC50 SCC-25,1.3
same,selectivity index (SI),SCC-25; IC50 PBMC / IC50 SCC-25,5.2
same,IC50,SCC-25,1 µM
same,IC50,ACP-03,2.4 µM
same,selectivity index (SI),ACP-03; IC50 HaCAT / IC50 ACP-03,0.04
same,selectivity index (SI),ACP-03; IC50 MRC5 / IC50 ACP-03,0.5
same,selectivity index (SI),ACP-03; IC50 PBMC / IC50 ACP-03,2.2
same,displacement of ethidium bromide from ctDNA (fluorescence),calf thymus DNA,significantly reduced the fluorescence intensity
same,IC50,BAD KO SV40 MEF; Mus musculus,0.41 µM
same,IC50,PBMC,5.2 µM
same,selectivity index (SI),K-562; IC50 HaCAT / IC50 K-562,0.1
same,selectivity index (SI),K-562; IC50 MRC5 / IC50 K-562,1.3
same,selectivity index (SI),K-562; IC50 PBMC / IC50 K-562,5.2
same,IC50,K-562; K562,1 µM
same,IC50,ACP-02,6.8 µM
same,selectivity index (SI),ACP-02; IC50 HaCAT / IC50 ACP-02,0.02
same,selectivity index (SI),ACP-02; IC50 MRC5 / IC50 ACP-02,0.2
same,selectivity index (SI),ACP-02; IC50 PBMC / IC50 ACP-02,0.8
same,selectivity index (SI),SCC-15; IC50 HaCAT / IC50 SCC-15,0.1
same,selectivity index (SI),SCC-15; IC50 MRC5 / IC50 SCC-15,0.9
same,selectivity index (SI),SCC-15; IC50 PBMC / IC50 SCC-15,3.5
same,IC50,SCC-15,1.5 µM
"COc1cc([O-])c(C(C)=O)c(OC)c1.F[P-](F)(F)(F)(F)F.[Ru+2].c1cnc2c(c1)ccc1cccnc12.c1cnc2c(c1)ccc1cccnc12 [RCX, cis-[Ru(phen)2(xant)](PF6)]",caspase-3 activity,caspase-3,caused the activation of all caspases analyzed
same,reduction of DNA synthesis,"HepG2 cells [1]; HepG2, 12 μM",46.4%
same,reduction of DNA synthesis,"HepG2 cells [1]; HepG2, 24 μM",65.2%
same,caspase-8 activity,caspase-8,caused the activation of all caspases analyzed
same,IC50,SCC-25,6.5 µM
same,selectivity index (SI),ACP-03,0.2
same,IC50,ACP-03,26 µM
same,mitochondrial membrane potential,HepG2 cells [2],induced mitochondrial depolarization
same,phosphorylation of p38 MAPK,p38 MAPK (pT180/pY182),an increase in the phosphorylation of p38 MAPK was not observed at any time point investigated
same,phosphorylation of JNK/SAPK,JNK/SAPK (pT183/pY185),the phosphorylation of JNK/SAPK after a 15-min incubation
same,phosphorylation of ERK1/2,ERK1/2 (pT202/pY204),induced the phosphorylation of ERK1/2 after 15- and 30-min incubations
same,displacement of ethidium bromide from ctDNA (fluorescence),calf thymus DNA,decreased the ethidium bromide fluorescence
same,ROS levels,HepG2 cells [3],did not induce a significant increase in ROS levels
same,induction of apoptosis,HepG2 cells [4],caused apoptosis in a time- and concentration-dependent manner
same,IC50,BAD KO SV40 MEF,4.1 µM
same,IC50,PBMC,4.6 µM
same,caspase-9 activity,caspase-9,caused the activation of all caspases analyzed
same,IC50,K-562,6.1 µM
same,selectivity index (SI),ACP-02,0.3
same,IC50,ACP-02,18.3 µM
same,IC50,SCC-15,6.8 µM
